{"source": "patent US20250251402A1", "about": "“METHODS OF DETECTING MOLECULAR AGGREGATES USING IMAGE CORRELATION SPECTROSCOPY (ICS)” (The General Hospital Corporation, priority 2022, published 2025)", "format_in_all_cases": "cell-based", "key": {"SKOV3 cells [1]": {"test_system": "SKOV3 cells", "test": "γH2AX immunofluorescence in SKOV3 cells (intensity, Imaris Spots, ICS TNoP and DA)", "text": "(§1) For the ICS analysis, nuclei were segmented from the DAPI channel using a watershed approach in MATLAB. Briefly, we applied a difference of gaussians for size-based feature extraction of nuclei in the image (upper gaussian σ=100, lower gaussian σ=2-5 dependent on cell size). This feature enhanced image was then binarized to create a primary mask (using the function imbinarize) and connected components under 100 pixels were removed (using the function bwareaopen). We then created a distance transform of the resulting binary image (using the function bwdist). Seed points were determined by finding the regional maximum of a gaussian filtered image, with a gaussian σ of appropriate size for seed point detection (σ×7 or 8 dependent on cell size). The seed points were applied to the distance transform, and we applied the watershed function to the resulting image to obtain masks for each nucleus (extracted using the function regionprops).\n(§2) Using the nucleus masks, we performed ICS analysis on the antibody-stained channel, within size limitations for a nucleus (objects >400 and <2400 pixels). Intensity, DA and TNOP were calculated for each cell. In this analysis, since the ROI is defined by the nucleus mask (segmented from nuclear signal using DAPI staining), TNoP represents the total number of particles per nucleus, with the image area being the number of pixels in each nuclear mask.\n(§3) Measurements across experiments were normalized by the control in each dataset. […] Data were plotted in Prism and statistical analysis was performed in Excel.\n(§4) Imaris spots analysis were performed with Imaris 9.8 with background subtraction, using a spot size of 1 μm that was measured from the smallest distinguishable foci from the control image. For images with multiple nuclei, ImarisCell was used with the detection type “cell and vesicles”, where the nucleus in the DAPI channel was modelled as the “cell” and antibody-labeled foci were modelled as the “vesicles”. This enabled us to count the number of foci per nucleus for multiple cells. In each dataset, the automatic “quality” threshold was determined from the control image and the same threshold was used for every image in the dataset to be able to compare the outputs across datasets. Similar to the ICS analysis, only cells with an area between 400-2400 voxels were included for analysis.\n(§5) All chemicals were purchased from Sigma unless otherwise noted. All drugs were purchased from Selleck Chemicals. Cells were cultured in media supplemented with 10% fetal bovine serum and 1% penicillin/streptomycin. OVCA429 were originally obtained from Dr. Michael Birrer and cultured in DMEM. SKOV3 was obtained from ATCC and cultured in RPMI. For MMS treatment, cells were incubated for 6 hours before fixation with 4% formaldehyde, whereas for treatment with PARP inhibitors, cells were incubated for 24 hours before fixation.\n(§6) Cells were plated in 8-well slides (Fisher) to achieve 50% confluence overnight. Cells were then treated and fixed with 4% formaldehyde in PBS at room temperature for 10 minutes. Antibody staining was performed according to the manufacturers protocol (Cell Signaling Technologies or Abcam). Primary antibodies used were γH2AX (CST, #2577), RPA1 (CST, #2267) and RAD51 (Abcam, 63801), with Anti-rabbit IgG Fab2 Alexa Fluor 647 (CST, #4414) as the secondary fluorescent antibody. After antibody labeling, prolong gold with DAPI (CST) was added and samples were stored for up to 1 week prior to imaging. Confocal imaging was performed on an Olympus FV1000 multiphoton/confocal microscope using an Olympus XLUMPlanFL N 20× objective, NA 1.00 with chromatic correction, and 3× digital zoom. DAPI was excited with a 405 nm laser, while Alexa Fluor 647 was excited with a 635 nm laser. A multiband (DM 405/488/561/633 nm) dichroic mirror was used to direct the excitation laser and collect emission. […]"}, "OVCA429 cells [2]": {"test_system": "OVCA429 cells", "test": "γH2AX immunofluorescence in OVCA429 cells (intensity, Imaris Spots, ICS TNoP and DA)", "text": "as §1, §2, §3, §4, §5, §6"}, "SKOV3 cells [3]": {"test_system": "SKOV3 cells", "test": "RPA1 immunofluorescence in SKOV3 cells (Imaris Spots, ICS DA)", "text": "as §1, with “The seed points were applied to the distance transform, and we applied the watershed function to the resulting image to obtain masks for each nucleus (extracted using the function regionprops).” left out\n(§7) Using the nucleus masks, we performed ICS analysis on the antibody-stained channel, within size limitations for a nucleus (objects >400 and <2400 pixels). Intensity, DA and TNOP were calculated for each cell. […]\n(§8) Imaris spots analysis were performed with Imaris 9.8 with background subtraction, using a spot size of 1 μm that was measured from the smallest distinguishable foci from the control image. […] In each dataset, the automatic “quality” threshold was determined from the control image and the same threshold was used for every image in the dataset to be able to compare the outputs across datasets. […]"}, "OVCA429 cells [4]": {"test_system": "OVCA429 cells", "test": "RPA1 immunofluorescence in OVCA429 cells (Imaris Spots, ICS DA)", "text": "as §1, with “The seed points were applied to the distance transform, and we applied the watershed function to the resulting image to obtain masks for each nucleus (extracted using the function regionprops).” left out\nas §7, §8"}, "SKOV3 cells [5]": {"test_system": "SKOV3 cells", "test": "RAD51 immunofluorescence in SKOV3 cells (Imaris Spots, ICS DA)", "text": "as §1, §2\nImaris spots analysis were performed with Imaris 9.8 with background subtraction, using a spot size of 1 μm that was measured from the smallest distinguishable foci from the control image. For images with multiple nuclei, ImarisCell was used with the detection type “cell and vesicles”, where the nucleus in the DAPI channel was modelled as the “cell” and antibody-labeled foci were modelled as the “vesicles”. This enabled us to count the number of foci per nucleus for multiple cells. In each dataset, the automatic “quality” threshold was determined from the control image and the same threshold was used for every image in the dataset to be able to compare the outputs across datasets. […]"}, "OVCA429 cells [6]": {"test_system": "OVCA429 cells", "test": "RAD51 immunofluorescence in OVCA429 cells (Imaris Spots, ICS DA)", "text": "as §1, with “The seed points were applied to the distance transform, and we applied the watershed function to the resulting image to obtain masks for each nucleus (extracted using the function regionprops).” left out\nas §7, §8"}, "HT1080 cells [7]": {"test_system": "HT1080 cells", "test": "γH2AX immunofluorescence ICS DA and nuclear intensity in HT1080 cells", "settings": "HT1080, 100 nM PDD00017273 overnight", "experimental": "Cells were plated in 8-well […] slides (Thermo or Ibidi) to achieve 50% confluence overnight. Cells were then treated and fixed with 4% paraformaldehyde in PBS at room temperature for 10 minutes. Antibody staining was performed according to the manufacturers protocol. Following fluorescent secondary antibody labeling, prolong gold with DAPI (Cell Signaling Technologies) was added and samples were stored for up to 1 week prior to imaging.\nICS analysis was performed in MATLAB as previously described (41). Briefly, nuclei were segmented from the DAPI channel with the MATLAB function, imbinarize, converting the greyscale image to a binary dependent on an automatically defined threshold. The MATLAB function, regionprops, was used to identify single nuclei as objects. Each nucleus was used as a mask to perform ICS analysis on the antibody-stained channel, within size limitations for a nucleus (objects >400 and <3000 pixels). To ensure the analysis of antibody stained nuclei, nuclei under an average intensity of 200 au after background subtraction were excluded. The spatial autocorrelation functions were calculated using Fourier methods, then fit to a 2D Gaussian using a nonlinear least-squares algorithm (41). Using the outputs of the fitting, the mean number of independent emitting fluorescent entities per focal spot area and subsequently the DA were determined (59). DA measurements across experiments were normalized by the control in each dataset. […] Any DA values exceeding 3 standard deviations from the mean were defined as incorrectly segmented and removed. Data were plotted in Prism and analysis performed in Prism or Excel."}, "HT1080 cells [8]": {"test_system": "HT1080 cells", "test": "Dose response cell viability (Presto Blue) in HT1080 cells", "settings": "HT1080, 100 nM PDD00017273", "experimental": "Cells were plated in a 96-well plate at 2×10^3 cells per well and treated with drug for 5 days in three replicate wells. Cell viability was then determined using Presto Blue (Thermo Fisher). Signal was averaged over 3 replicate wells and normalized to blank (no cells) as well as to the levels of untreated wells. A sigmoidal response curve was fit to the average of two experiments in Prism. PARPi z score was calculated for each PARPi using 9 cell lines. The average z score over three PARPi (veliparib, olaparib, talazoparib) was then determined as a representation of cell line PARPi sensitivity."}}, "note": "“Also recorded” adds a separate entry of the source."}
{"compound": "COS(C)(=O)=O", "note": "[MMS, methyl methane-sulfonate]", "values": [{"measurement": "ICS degree of aggregation (DA) of γH2AX, dose dependence", "setting": "SKOV3 cells [1]; SKOV3", "result": "dose dependence"}, {"measurement": "Normalized γH2AX intensity, increase", "setting": "SKOV3 cells [1]; SKOV3, highest MMS dose, normalized to untreated control", "result": "~8", "unit": "×"}, {"measurement": "ICS DA of γH2AX, dose dependence", "setting": "OVCA429 cells [2]; OVCA429", "result": "results similar to Spots analysis"}, {"measurement": "ICS TNoP of γH2AX, dose dependence", "setting": "OVCA429 cells [2]; OVCA429", "result": "did not produce any MMS dose dependence"}, {"measurement": "Imaris Spots analysis of γH2AX, dose dependence", "setting": "OVCA429 cells [2]; OVCA429", "result": "captured the MMS dose dependent DNA damage"}, {"measurement": "γH2AX intensity", "setting": "OVCA429 cells [2]; OVCA429, 1 mM MMS", "result": "drastically increases"}, {"measurement": "RPA1 clustering (Spots analysis and ICS DA), dose dependence", "setting": "SKOV3 cells [3]", "result": "dose dependent increase in RPA1 clustering"}, {"measurement": "RPA1 Imaris Spots analysis, dose dependence", "setting": "OVCA429 cells [4]; OVCA429", "result": "more modest increase with increasing MMS dose"}, {"measurement": "RPA1 ICS DA, increase in aggregation", "setting": "OVCA429 cells [4]; OVCA429, 1 mM MMS", "result": "exceeding 2.5 × of control"}, {"measurement": "RAD51 ICS DA, dose dependence", "setting": "SKOV3 cells [5]; SKOV3", "result": "dose dependent increases in aggregation"}, {"measurement": "RAD51 Imaris Spots analysis, dose dependence", "setting": "SKOV3 cells [5]; SKOV3", "result": "did not show an overall MMS dose dependency"}, {"measurement": "RAD51 ICS DA, increase over control", "setting": "SKOV3 cells [5]; SKOV3, 1 mM MMS", "result": 3, "unit": "×"}, {"measurement": "RAD51 ICS DA, dose dependence", "setting": "OVCA429 cells [6]", "result": "dose dependent increases in aggregation"}, {"measurement": "RAD51 Imaris Spots analysis, dose dependence", "setting": "OVCA429 cells [6]", "result": "did not show an overall MMS dose dependency"}]}
{"compound": "PDD00017273", "values": [{"measurement": "γH2AX DA induced by 1 μM veliparib or talazoparib, with vs without PDD00017273", "setting": "HT1080 cells [7]", "result": "did not alter the veliparib or talazoparib induced γH2AX DA; also recorded: no significant differences"}, {"measurement": "HT1080 dose response to veliparib, with vs without PDD00017273", "setting": "HT1080 cells [8]", "result": "did not impact HT1080 response to veliparib"}]}
